The subject of the assay is K. pneumoniae isolates. As to the kind of experiment: Gene dosage effects: AUC of normalized median coverage per gene, resistant vs susceptible isolates. Details: unit not given here. Particulars: best MIC break. How it is done:
Since a potential reason for drug resistance is gene duplication, gene dose dependency was evaluated. For each sample the genomic coverage for each position was determined using BED Tools. Gene ranges were extracted from the reference assemblies NC_009648.gff and NC_016612.gff and the normalized median coverage per gene was calculated. To compare low- and high-resistance isolates the best area under the curve (AUC) value was computed.
To estimate the difference in coverage we calculated AUC values for the normalized median coverage per gene in the two groups.

[1] abbreviates: gene KPN_00957: 1081235-1081342.
Where [2] appears, read: gene KPN_01607: 1784144-1785004.
The mark [3] stands for this setting: gene KPN_01776: 1957110-1958672.
The mark [4] stands for this setting: gene KPN_01784: 1966562-1967182.
Setting [5] is: gene KPN_01790: 1972135-1973631.
Setting [6] is: gene KPN_02272: 2484450-2485832.
Where [7] appears, read: gene KPN_03336: 3652949-3653470.
Setting [8] is: gene KPN_04541: 4973659-4974345.

Consider `CC1(C)S[C@@H]2[C@H](NC(=O)[C@H](N)c3ccccc3)C(=O)N2[C@H]1C(=O)O` [Ampicillin], for which the BEST_BREAK was found to be 128.1 under setting [1] and 128.1 under setting [2].

In the case of Piperacillin/Tazobactam, the BEST_BREAK under setting [1] amounted to 8; the BEST_BREAK under setting [2] was 128; the BEST_BREAK (gene KPN_01766: 1947966-1948751) is on record as 128; the BEST_BREAK (gene KPN_01767: 1948966-1949805) is given as 128; the BEST_BREAK (gene KPN_01772: 1953630-1954052) stood at 128; the BEST_BREAK (gene KPN_01773: 1954090-1955208) came out at 64. The BEST_BREAK is, setting by setting: under setting [3], 128; under setting [4], 128; under setting [5], 128; under setting [6], 256.1; under setting [7], 256; under setting [8], 64. Moreover, the BEST_BREAK is, setting by setting: (gene rmlC: 2723257-2723811) 256.1; (gene stbA: 300128-300664) 128; (gene ygbI: 1783401-1784123) 128; (gene ygbJ: 1782199-1783101) 128; (gene ygbK: 1780922-1782187) 128.

As to Amoxicillin/K Clavulanate, the BEST_BREAK runs as follows: under setting [1], 64; under setting [2], 8; under setting [4], 32; under setting [6], 64; under setting [7], 32; (gene KPN_04540: 4971080-4973572) 32. Besides, the BEST_BREAK is on record as 32 under setting [8], 64.1 (gene rmlC: 2715683-2716237), 64.1 (gene rmlC: 2723257-2723811) and 8 (gene ygbI: 1783401-1784123).

With Ampicillin/Sulbactam, the BEST_BREAK under setting [1] stood at 32; the BEST_BREAK under setting [2] worked out at 64.1; the BEST_BREAK under setting [3] is given as 64.1; the BEST_BREAK under setting [4] worked out at 64.1; the BEST_BREAK under setting [5] is reported as 64.1; the BEST_BREAK under setting [8] is on record as 64.1. For the same molecule, the BEST_BREAK amounted to 64.1 (gene rmlC: 2723257-2723811), 64.1 (gene ygbI: 1783401-1784123), 64.1 (gene ygbJ: 1782199-1783101) and 64.1 (gene ygbK: 1780922-1782187).

Gentamicin: the BEST_BREAK came to 2 (gene KPN_00596: 673027-673989); 1 under setting [1]; 1 under setting [2]; 1 under setting [3]; 1 under setting [4].

These data come from patent US20170283862A1, “GENETIC TESTING FOR PREDICTING RESISTANCE OF KLEBSIELLA SPECIES AGAINST ANTIMICROBIAL AGENTS” (priority 2014, published 2017).
